Results as given in paper PMC5622025, “Synthesis and biological evaluation of tricyclic matrinic derivatives as a class of novel anti-HCV agents” (Chemistry Central Journal, 2017).
Counter-ions that a name gives are not always drawn. Like-named read-outs stand apart in the source and are kept apart here.

Columns and labels:
[1] = test system: Huh7.5 cells; experiment: Cytotoxicity assay (MTT) in Huh7.5 cells; type: cell-based, human
Protocol: (§1) All the target compounds were evaluated for their anti-HCV activities (EC50) and cytotoxicities (CC50) in human Huh7.5 cells using specific real-time RT-PCR assay, as described earlier. As an important indicator, the selectivity index (SI) was calculated as a ratio of CC50 to EC50. Anti-HCV ability of a given compound was estimated by combining its EC50 with SI values.
(§2) Human liver cell line Huh7.5 cells (kindly provided by Vertex Pharmaceuticals, Inc., Boston, MA) were cultured in Dulbecco’s modified eagle medium (DMEM) supplemented with 10% inactivated fetal bovine serum and 1% penicillin–streptomycin (invitrogen). Cells were digested with 0.05% trypsin-ethylene diamine tetraacetic acid (EDTA) and split twice a week.
(§3) Huh7.5 cells were seeded into 96-well plates (Costar) at a density of 3 × 10^4 cells cm^−2. After 24 h incubation, fresh culture medium containing test compounds at various concentrations were added. 72 h later, cytotoxicity was evaluated with 3-(4,5-dimethylthiazol-2-yl)-2,5-diphenyltetrazolium bromide (MTT).

[2] = test system: HCV; experiment: Anti-HCV effect in vitro, intracellular HCV RNA by real-time RT-PCR in infected Huh7.5 cells; type: cell-based, hepatitis C virus; settings: for EC50: read-out: EC50 (concentration required to inhibit HCV growth by 50%); for SI (ratio of CC50 to EC50): Huh7.5 cells
Protocol: as §1, §2
Huh7.5 cells were seeded into 96-well or 6-well plates (Costar) at a density of 3 × 10^4 cells cm^−2. After 24 h incubation, the cells were infected with HCV viral stock (45 IU cell^−1) and simultaneously treated with the test compounds at various concentrations or solvent as control. The culture medium was removed after 72 h inoculation, the intracellular total RNA (in 96-well plates) was extracted with RNeasy Mini Kit (Qiagen), and total intracellular proteins (in 6-well plates) were extracted with Cyto-Buster Protein Extraction Reagent added with 1 mM protease inhibitor cocktail. The intracellular HCV RNA was quantified with a real time one-step reverse-transcription polymerase chain reaction (RT-PCR).

[3] = Cytotoxicity assay (MTT) in Huh7.5 cells; type: cell-based, human; settings: human
Protocol: as §1, §2, §3

[4] = HCV-infected Huh7.5 cells, 72 h, real-time RT-PCR
[5] = Huh7.5 cells, 72 h, MTT, read-out: CC50 (cytotoxic concentration required to inhibit Huh7.5 cell growth by 50%)
[6] = Hepatitis C virus, Huh7.5, 72 h

Row | SMILES | CC50 [1] | EC50 [2, 4] | SI (ratio of CC50 to EC50) [2] | CC50 [1, 5] | CC50 at 72 h [3] | EC50 [2, 6] | CC50 at 72 h [3, 5] | melting point
1 | O=C(CN1C[C@@H]2CCCN3CCC[C@@H]([C@H]23)[C@H]1CCCCO)Nc1ccccc1 [7 h, 12N-(2-Oxo-2-(phenylamino)ethyl)matrinol] | > 500 µM | 46.7 ± 41 µM | > 10.7 |  |  |  |  | 
2 | COC(=O)CCC[C@@H]1[C@H]2CCCN3CCC[C@@H](CN1Cc1ccc(C)cc1)[C@@H]23 [6b, Methyl 12N-(4-methylbenzyl)matrinate] |  | 1.73 ± 1.36 µM | 76.8 | 133 ± 7.53 µM |  |  |  | 
3 | C=Cc1ccc(CN2C[C@@H]3CCCN4CCC[C@@H]([C@H]34)[C@H]2CCCC(=O)OC)cc1 [6c, Methyl 12N-(4-vinylbenzyl)matrinate] |  | 1.61 ± 0.76 µM | 50.4 | 81.2 ± 12.9 µM |  |  |  | 
4 | Cc1ccc(CN2CC3CCCN4CCCC(C2CCCC(C)(C)O)C34)cc1.Cl.Cl (stereo not drawn) [10b, 1′,1′-Dimethyl-12N-(4-methylbenzyl)matrinol dihydrochloride] | 55.7 ± 7.5 µM | 0.82 ± 0.26 µM | 67.9 |  |  |  |  | 
5 | CCC[C@H](NC(=O)[C@@H]1[C@H]2CCC[C@H]2CN1C(=O)[C@@H](NC(=O)[C@@H](NC(=O)c1cnccn1)C1CCCCC1)C(C)(C)C)C(=O)C(=O)NC1CC1 [Tela, telaprevir, reference compound] |  |  | 1950 |  | 47.6 ± 0.61 µM | 0.02 ± 0.02 µM |  | 
6 | CC(C)(O)CCC[C@@H]1[C@H]2CCCN3CCC[C@@H](CN1Cc1ccncc1)[C@@H]23 [10e, 1′,1′-Dimethyl-12N-(4-pyridylmethyl)matrinol] | > 500 µM | 80.4 µM |  |  |  |  |  | 
7 | COc1ccc(CN2C[C@@H]3CCCN4CCC[C@@H]([C@H]34)[C@H]2CCCC(C)(C)O)cc1.Cl.Cl [10a, 1′,1′-Dimethyl-12N-(4-methoxybenzyl)matrinol dihydrochloride] | > 140 µM | 11.7 ± 0.06 µM | 12.0 |  |  |  |  | 
8 | COC(=O)CCCC1C2CCCN3CCCC(CN1Cc1ccc([N+](=O)[O-])cc1)C23.Cl.Cl (stereo not drawn) [6e, Methyl 12N-(4-nitrobenzyl)matrinate dihydrochloride] | 235 ± 48.2 µM | 14.2 ± 3.13 µM | 16.5 |  |  |  |  | 
9 | COC(=O)CCC[C@@H]1[C@H]2CCCN3CCC[C@@H](CN1Cc1ccc(F)cc1)[C@@H]23 [compound 2] |  | 2.09 ± 1.65 µM | 131 | 274 ± 8.35 µM |  |  |  | 
10 | Cl.Cl.OCC/C=C\C1C2CCCN3CCCC(CN1Cc1ccc(F)cc1)C23 (stereo not drawn) [14b, (Z)-12N-4-(Fluorobenzyl)-Δ^βγ-matrinic crotonol dihydrochloride] | 156 ± 65.8 µM | 13.6 ± 2.63 µM | 11.5 |  |  |  |  | 
11 | CCC(O)(CC)CCC[C@@H]1[C@H]2CCCN3CCC[C@@H](CN1Cc1ccc(C)cc1)[C@@H]23.Cl.Cl [10c, 1′,1′-Diethyl-12N-(4-methylbenzyl)matrinol dihydrochloride] | 12.3 ± 4.23 µM | < 0.23 µM | > 53.5 |  |  |  |  | 
12 | COC(=O)CCC[C@@H]1[C@H]2CCCN3CCC[C@@H](CN1Cc1ccc(F)cc1F)[C@@H]23 [6d, Methyl 12N-(2,4-difluorobenzyl)matrinate] |  | 1.69 ± 1.47 µM | 154 | 261 ± 28.7 µM |  |  |  | 
13 | OCCCC[C@@H]1[C@H]2CCCN3CCC[C@@H](CN1Cc1ccc(F)cc1)[C@@H]23 [3a] | 285 ± 7.45 µM | 2.99 ± 1.51 µM | 95.3 |  |  |  |  | 
14 | Cl.Cl.OCCCC[C@@H]1[C@H]2CCCN3CCC[C@@H](CN1Cc1ccncc1)[C@@H]23 [7e, 12N-(Pyridin-4-ylmethyl)matrinol dihydrochloride] | > 500 µM | 9.03 ± 5.58 µM | > 55.4 |  |  |  |  | 
15 | COc1ccc(CN2CC3CCCN4CCCC(C2/C=C\CCO)C34)cc1.Cl.Cl (stereo not drawn) [14a, (Z)-12N-(4-Methoxybenzyl)-Δ^βγ-matrinic crotonol dihydrochloride] | 214 ± 95 µM | 8.8 ± 2.15 µM | 24.3 |  |  |  |  | 
16 | CCCCCCCN1C[C@@H]2CCCN3CCC[C@@H]([C@H]23)[C@H]1CCCCO [3c] | 33.3 ± 6.49 µM | 1.01 ± 0.55 µM | 32.9 |  |  |  |  | 

Row | SMILES | CC50 [1] | EC50 [2, 4] | SI (ratio of CC50 to EC50) [2] | CC50 [1, 5] | CC50 at 72 h [3] | EC50 [2, 6] | CC50 at 72 h [3, 5] | melting point
17 | COC(=O)C/C=C\C1C2CCCN3CCCC(CN1Cc1ccc(OC)cc1)C23 (stereo not drawn) [13a, (Z)-Methyl 12N-(4-methoxybenzyl)-Δ^βγ-matrinic crotonate] | 326 ± 21 µM | 16.7 ± 4.71 µM | 19.5 |  |  |  |  | 
18 | C=Cc1ccc(CN2C[C@@H]3CCCN4CCC[C@@H]([C@H]34)[C@H]2CCCCO)cc1.Cl.Cl [7c, 12N-(4-Vinylbenzyl)matrinol dihydrochloride] | 143 ± 32.3 µM | 3.16 ± 0.51 µM | 45.3 |  |  |  |  | 
19 | CCCCCCCCN1C[C@@H]2CCCN3CCC[C@@H]([C@H]23)[C@H]1CCCCO [3d] | 17.8 ± 2.44 µM | 0.8 ± 0.26 µM | 22.3 |  |  |  |  | 
20 | CCCN1C[C@@H]2CCCN3CCC[C@@H]([C@H]23)[C@H]1CCCCO [3b] | > 500 µM | 16.4 ± 10.9 µM | > 30.5 |  |  |  |  | 
21 | Cl.Cl.OCCCCC1C2CCCN3CCCC(CN1Cc1ccc(Cl)cn1)C23 (stereo not drawn) [7 g, 12N-(5-Chloropyridin-2-ylmethyl)matrinol dihydrochloride] | > 500 µM | 10.9 ± 5.59 µM | > 45.9 |  |  |  |  | 
22 | CCCC[C@@H]1[C@H]2CCCN3CCC[C@@H](CN1Cc1ccc(OC)cc1)[C@@H]23 [compound 9, 12N-4-methoxybenzyl matrinic butane] |  |  | 36.1 |  |  | 1.16 ± 0.25 µM | 41.9 ± 1.1 µM | 73 to 74 °C
23 | COC(=O)C/C=C\[C@@H]1[C@H]2CCCN3CCC[C@@H](CN1Cc1ccc(F)cc1)[C@@H]23.Cl.Cl [13b, (Z)-Methyl 12N-(4-fluorobenzyl)-Δ^βγ-matrinic crotonate dihydrochloride] | 260 ± 84.8 µM | 18.1 ± 6.49 µM | 14.4 |  |  |  |  | 
24 | O=[N+]([O-])c1cccc(CN2C[C@@H]3CCCN4CCC[C@@H]([C@H]34)[C@H]2/C=C\CCO)c1 (as salt: hydrochloride) [compound 20, (Z)-12N-(3-nitrobenzyl)-Δ^βγ-matrinic crotonol dihydrochloride] |  |  |  |  |  |  |  | 143 to 145 °C
25 | O=[N+]([O-])c1cccc(CN2C[C@@H]3CCCN4CCC[C@@H]([C@H]34)[C@H]2/C=C\CCO)c1 [compound 20, (Z)-12N-(3-nitrobenzyl)-Δ^βγ-matrinic crotonol dihydrochloride] |  |  | 17.0 |  |  | 18.4 ± 1.64 µM | 312 ± 31.1 µM | 
26 | Cl.Cl.O=C(CN1CC2CCCN3CCCC(C1CCCCO)C23)Nc1ccc(C(F)(F)F)cc1 (stereo not drawn) [7i, 12N-(2-Oxo-2-((4-(trifluoromethyl)phenyl)amino)ethyl)matrinol dihydrochloride] | 86.2 ± 4.33 µM | 4.19 ± 1.44 µM | 20.6 |  |  |  |  | 
27 | COC(=O)CCC[C@@H]1[C@H]2CCCN3CCC[C@@H](CN1Cc1ccc(OC)cc1)[C@@H]23.Cl.Cl [6a, Methyl 12N-(4-methoxybenzyl)matrinate dihydrochloride] | 414 ± 7.34 µM | 7.01 ± 1.51 µM | 59.1 |  |  |  |  | 
28 | COC(=O)CCC[C@@H]1[C@H]2CCCN3CCC[C@@H](CN1Cc1ccncc1)[C@@H]23 [6f, Methyl 12N-(pyridin-4-ylmethyl)matrinate] | > 500 µM | 4.66 ± 0.35 µM | > 107 |  |  |  |  | 
29 | CC(C)(O)CCCC1C2CCCN3CCCC(CN1Cc1ccc(F)cc1F)C23.Cl.Cl (stereo not drawn) [10d, 1′,1′-Dimethyl-12N-(2,4-difluorobenzyl)matrinol dihydrochloride] | 156 ± 37.9 µM | 6.55 ± 2.69 µM | 23.8 |  |  |  |  | 
30 | OCCCCC1C2CCCN3CCCC(CN1Cc1cccnc1)C23 (stereo not drawn) [7f, 12N-(Pyridin-3-ylmethyl)matrinol] | > 500 µM | 4.39 ± 3.01 µM | > 114 |  |  |  |  | 
31 | COC(=O)C/C=C\[C@@H]1[C@H]2CCCN3CCC[C@@H](CN1Cc1cccc([N+](=O)[O-])c1)[C@@H]23.Cl.Cl [13c, (Z)-Methyl 12N-(3-nitrobenzyl)-Δ^βγ-matrinic crotonate dihydrochloride] |  | 40.4 ± 3.64 µM | 10.0 | 402 ± 83.6 µM |  |  |  | 
32 | OCCCCC1C2CCCN3CCCC(CN1Cc1ccc(F)cc1F)C23 (stereo not drawn) [7d, 12N-(2,4-Difluorobenzyl)matrinol dihydrochloride] |  | < 2.06 µM |  | 266 ± 9.47 µM |  |  |  | 
